Data: patent US10195196B2, “1,4-disubstituted pyridazine analogs there of and methods for treating SMN-deficiency-related conditions” (NOVARTIS AG, priority 2012, dated 2019)
pEC50: −log10 of the molar value.

Test system: SMN protein
Assay: cellular SMN ELISA (SMN protein elevation)
Assay type: cell-based
Details: ELISA condition 2: compound concentration 100 pM-10 uM, myoblast cell line from SMNdelta7 mouse model, 24 hours treatment; for SMN activity Fold: fold activation over DMSO control
Method in brief: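 SMNdelta7 mouse-derived myoblasts were treated with compound for 24 h, then lysed. SMN protein was quantified by sandwich ELISA (HRP/TMB, 450 nm) and reported as fold over DMSO and EC50, over 20 nM–10 μM or 100 pM–10 μM depending on condition.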

For COc1cc(-c2cccnc2)cc(O)c1-c1ccc(N(C)C2CC(C)(C)NC(C)(C)C2)nn1 [Example 26-3, 3-methoxy-2-(6-(methyl(2,2,6,6-tetramethylpiperidin-4-yl)amino)pyridazin-3-yl)-5-(pyridin-3-yl)phenol], the pEC50 was 7.33 and the “SMN activity Fold” value was 2.70 Fold.

With COc1cc(-c2cnn(C3CCCC3)c2)cc(O)c1-c1ccc(N(C)C2CC(C)(C)NC(C)(C)C2)nn1 [Example 26-4, 5-(1-cyclopentyl-1H-pyrazol-4-yl)-3-methoxy-2-(6-(methyl(2,2,6,6-tetramethylpiperidin-4-yl)amino)pyridazin-3-yl)phenol] the pEC50 was 6.19 and the “SMN activity Fold” value was 2.22 Fold.

COc1cccc(-c2cc(O)c(-c3ccc(N(C)C4CC(C)(C)NC(C)(C)C4)nn3)c(OC)c2)c1 [Example 26-5, 3′,5-Dimethoxy-4-(6-(methyl(2,2,6,6-tetramethylpiperidin-4-yl)amino)pyridazin-3-yl)-[1,1′-biphenyl]-3-ol] was tested, and the pEC50 was 6.50 and the “SMN activity Fold” value was 2.14 Fold.

For Cc1cnc(-c2cc(O)c(-c3ccc(N(C)C4CC(C)(C)NC(C)(C)C4)nn3)c(OCc3ccccc3)c2)o1 [Example 27-1, 3-(benzyloxy)-2-(6-(methyl(2,2,6,6-tetramethylpiperidin-4-yl)amino)pyridazin-3-yl)-5-(5-methyloxazol-2-yl)phenol], the pEC50 was 6.52 and the “SMN activity Fold” value was 2.35 Fold.

In the case of CCOc1cc(-c2ncc(C)o2)cc(O)c1-c1ccc(N(C)C2CC(C)(C)NC(C)(C)C2)nn1 [Example 27-2, 3-ethoxy-2-(6-(methyl(2,2,6,6-tetramethylpiperidin-4-yl)amino)pyridazin-3-yl)-5-(5-methyloxazol-2-yl)phenol], the pEC50 was 6.78 and the “SMN activity Fold” value was 2.83 Fold.

Cc1cnc(-c2cc(O)c(-c3ccc(N(C)C4CC(C)(C)NC(C)(C)C4)nn3)c(OCC3CC3)c2)o1 [Example 27-3, 3-(cyclopropylmethoxy)-2-(6-(methyl(2,2,6,6-tetramethylpiperidin-4-yl)amino)-pyridazin-3-yl)-5-(5-methyloxazol-2-yl)phenol] was tested, and the pEC50 was 6.21 and the “SMN activity Fold” value was 2.75 Fold.

With Cc1nc2cc(-c3ccc(N(C)C4CC(C)(C)NC(C)(C)C4)nn3)c(O)cc2[nH]1 [Example 28-1, 2-methyl-5-(6-(methyl(2,2,6,6-tetramethylpiperidin-4-yl)amino)pyridazin-3-yl)-1H-benzo[d]imidazol-6-ol] the pEC50 was 6.32 and the “SMN activity Fold” value was 3.41 Fold.

For CN(c1ccc(-c2ccc(Cl)cc2O)nn1)C1CC(C)(C)NC(C)(C)C1 [Example 29-1, 5-chloro-2-(6-(methyl(2,2,6,6-tetramethylpiperidin-4-yl)amino)pyridazin-3-yl)phenol], the pEC50 was 6.95 and the “SMN activity Fold” value was 2.49 Fold.

In the case of CC1(C)CC(Nc2ccc(-c3ccc(-n4cccn4)cc3O)nn2)CC(C)(C)N1 [Example 30-1, 5-(1H-pyrazol-1-yl)-2-(6-((2,2,6,6-tetramethylpiperidin-4-yl)amino)pyridazin-3-yl)phenol], the pEC50 was 8.10 and the “SMN activity Fold” value was 2.99 Fold.

With CC1(C)CC(Nc2ccc(-c3ccc(C#N)cc3O)nn2)CC(C)(C)N1 [Example 30-2, 3-hydroxy-4-(6-((2,2,6,6-tetramethylpiperidin-4-yl)amino)pyridazin-3-yl)benzonitrile] the pEC50 was 7.21 and the “SMN activity Fold” value was 2.98 Fold.

CC1(C)CC(Oc2ccc(-c3ccc(-n4cccn4)cc3O)nn2)CCN1 (stereo not drawn) [Example 31-1, 2-(6-((2,2-dimethylpiperidin-4-yl)oxy)pyridazin-3-yl)-5-(1H-pyrazol-1-yl)phenol] was tested, and the pEC50 was 6.70 and the “SMN activity Fold” value was 3.03 Fold.

CN(c1ccc(-c2cc(-c3cn[nH]c3)ccc2O)nn1)C1CC(C)(C)NC(C)(C)C1 [Example 32-1, 2-(6-(methyl(2,2,6,6-tetramethylpiperidin-4-yl)amino)pyridazin-3-yl)-4-(1H-pyrazol-4-yl)phenol] was tested, and the pEC50 was 6.90 and the “SMN activity Fold” value was 2.67 Fold.

In the case of CN(c1ccc(-c2cc(-c3cnn4c3CCCC4)ccc2O)nn1)C1CC(C)(C)NC(C)(C)C1 [Example 32-2, 2-(6-(methyl(2,2,6,6-tetramethylpiperidin-4-yl)amino)pyridazin-3-yl)-4-(4,5,6,7-tetrahydropyrazolo[1,5-a]pyridin-3-yl)phenol], the pEC50 was 6.40 and the “SMN activity Fold” value was 2.49 Fold.

CN(c1ccc(-c2cc(-c3cnn4c3CNCC4)ccc2O)nn1)C1CC(C)(C)NC(C)(C)C1 [Example 32-3, 2-(6-(methyl(2,2,6,6-tetramethylpiperidin-4-yl)amino)pyridazin-3-yl)-4-(4,5,6,7-tetrahydropyrazolo[1,5-a]pyrazin-3-yl)phenol] was tested, and the pEC50 was 6.70 and the “SMN activity Fold” value was 2.44 Fold.

In the case of CN(c1ccc(-c2cc(-c3cc4ccccc4[nH]3)ccc2O)nn1)C1CC(C)(C)NC(C)(C)C1 [Example 32-4, 4-(1H-indol-2-yl)-2-(6-(methyl(2,2,6,6-tetramethylpiperidin-4-yl)amino)pyridazin-3-yl)phenol], the pEC50 was 6.77 and the “SMN activity Fold” value was 2.09 Fold.

In the case of CN(c1ccc(-c2cc(C3=CCCC3)ccc2O)nn1)C1CC(C)(C)NC(C)(C)C1 [Example 32-5, 4-(cyclopent-1-en-1-yl)-2-(6-(methyl(2,2,6,6-tetramethylpiperidin-4-yl)amino)pyridazin-3-yl)phenol], the pEC50 was 6.64 and the “SMN activity Fold” value was 2.52 Fold.

In the case of CN(c1ccc(-c2cc(-c3ccn[nH]3)ccc2O)nn1)C1CC(C)(C)NC(C)(C)C1 [Example 32-6, 2-(6-(methyl(2,2,6,6-tetramethylpiperidin-4-yl)amino)pyridazin-3-yl)-4-(1H-pyrazol-3-yl)phenol], the pEC50 was 7.04 and the “SMN activity Fold” value was 2.69 Fold.

For CN(c1ccc(-c2cc(-c3ccnc(O)c3)ccc2O)nn1)C1CC(C)(C)NC(C)(C)C1 [Example 32-7, 4-(4-hydroxy-3-(6-(methyl(2,2,6,6-tetramethylpiperidin-4-yl)amino)pyridazin-3-yl)phenyl)pyridin-2-ol], the pEC50 was 6.26 and the “SMN activity Fold” value was 3.27 Fold.

For Cn1ccc(-c2ccc(O)c(-c3ccc(OC4CC(C)(C)NC(C)(C)C4)nn3)c2)cc1=O [Example 32-8, 4-(4-hydroxy-3-(6-((2,2,6,6-tetramethylpiperidin-4-yl)oxy)pyridazin-3-yl)phenyl)-1-methylpyridin-2(1H)-one], the pEC50 was 6.36 and the “SMN activity Fold” value was 2.61 Fold.

CC1(C)CC(Oc2ccc(-c3cc(-c4ccnc(O)c4)ccc3O)nn2)CC(C)(C)N1 [Example 32-9, 4-(4-hydroxy-3-(6-((2,2,6,6-tetramethylpiperidin-4-yl)oxy)pyridazin-3-yl)phenyl)pyridin-2-ol] was tested, and the pEC50 was 6.31 and the “SMN activity Fold” value was 2.90 Fold.

For CN(c1ccc(-c2ccc(-c3cccc4cn[nH]c34)cc2O)nn1)C1CC(C)(C)NC(C)(C)C1 [Example 33-1, 5-(1H-indazol-7-yl)-2-(6-(methyl(2,2,6,6-tetramethylpiperidin-4-yl)amino)pyridazin-3-yl)phenol], the pEC50 was 6.46 and the “SMN activity Fold” value was 2.29 Fold.

With CN(c1ccc(-c2cc(Cl)c(-c3cn[nH]c3)cc2O)nn1)C1CC(C)(C)NC(C)(C)C1 [Example 34-1, 4-chloro-2-(6-(methyl(2,2,6,6-tetramethylpiperidin-4-yl)amino)pyridazin-3-yl)-5-(1H-pyrazol-4-yl)phenol] the pEC50 was 8.15 and the “SMN activity Fold” value was 2.80 Fold.

In the case of CN(c1ccc(-c2cc(F)c(-c3cn[nH]c3)cc2O)nn1)C1CC(C)(C)NC(C)(C)C1 [Example 34-2, 4-fluoro-2-(6-(methyl(2,2,6,6-tetramethylpiperidin-4-yl)amino)pyridazin-3-yl)-5-(1H-pyrazol-4-yl)phenol], the pEC50 was 8.70 and the “SMN activity Fold” value was 2.49 Fold.

CN(c1ccc(-c2cc(-c3c[nH]cn3)c(F)cc2O)nn1)C1CC(C)(C)NC(C)(C)C1 [Example 34-3, 5-fluoro-4-(1H-imidazol-4-yl)-2-(6-(methyl(2,2,6,6-tetramethylpiperidin-4-yl)amino)pyridazin-3-yl)phenol] was tested, and the pEC50 was 7.57 and the “SMN activity Fold” value was 2.56 Fold.

In the case of CN(c1ccc(-c2cc(-c3cn[nH]c3)c(F)cc2O)nn1)C1CC(C)(C)NC(C)(C)C1 [Example 34-4, 5-fluoro-2-(6-(methyl(2,2,6,6-tetramethylpiperidin-4-yl)amino)pyridazin-3-yl)-4-(1H-pyrazol-4-yl)phenol], the pEC50 was 7.43 and the “SMN activity Fold” value was 2.34 Fold.

In the case of CN(c1ccc(-c2cc(-c3ccn[nH]3)c(F)cc2O)nn1)C1CC(C)(C)NC(C)(C)C1 [Example 34-5, 5-fluoro-2-(6-(methyl(2,2,6,6-tetramethylpiperidin-4-yl)amino)pyridazin-3-yl)-4-(1H-pyrazol-5-yl)phenol], the pEC50 was 7.25 and the “SMN activity Fold” value was 2.75 Fold.

For CN(c1ccc(-c2cc3c(cc2O)C(=O)CC3)nn1)C1CC(C)(C)NC(C)(C)C1 [Example 35-1, 6-hydroxy-5-(6-(methyl(2,2,6,6-tetramethylpiperidin-4-yl)amino)pyridazin-3-yl)-2,3-dihydro-1H-inden-1-one], the pEC50 was 7.57 and the “SMN activity Fold” value was 2.79 Fold.

In the case of CN(c1ccc(-c2cc3c(cc2O)-c2[nH]ncc2C3)nn1)C1CC(C)(C)NC(C)(C)C1 [Example 35-2, 6-(6-(methyl(2,2,6,6-tetramethylpiperidin-4-yl)amino)pyridazin-3-yl)-1,4-dihydroindeno[1,2-c]pyrazol-7-ol], the pEC50 was 8.00 and the “SMN activity Fold” value was 2.84 Fold.

In the case of CN(c1ccc(-c2cc3c(cc2O)/C(=N/O)CC3)nn1)C1CC(C)(C)NC(C)(C)C1 [Example 35-3, 6-hydroxy-5-(6-(methyl(2,2,6,6-tetramethylpiperidin-4-yl)amino)pyridazin-3-yl)-2,3-dihydro-1H-inden-1-one oxime], the pEC50 was 7.96 and the “SMN activity Fold” value was 2.62 Fold.

In the case of CN(c1ccc(-c2cc3c(cc2O)C(O)CC3)nn1)C1CC(C)(C)NC(C)(C)C1 (stereo not drawn) [Example 35-4, 5-(6-(methyl(2,2,6,6-tetramethylpiperidin-4-yl)amino)pyridazin-3-yl)-2,3-dihydro-1H-indene-1,6-diol], the pEC50 was 6.88 and the “SMN activity Fold” value was 2.11 Fold.
